Our source for the TGI values is PubChem BioAssay (NCI).

Some test systems named below: P388 leukemia; SN12K1 renal; 786-0 renal; BT-549 breast; HS 578T breast; LXFL 529 NSCLC; MDA-N; RXF-631 renal; SR leukemia; T-47D breast.
What all share (assay): NCI tumour cell line growth inhibition, 48 h

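Following 48 hours of exposure in 96-well plates, responses at five concentrations were used to interpolate endpoints linearly. TGI denotes the concentration required for complete inhibition of growth.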

Take `COc1cc(C2c3cc4c(cc3[C@@H](Nc3cnc5ccccc5c3)C3COC(=O)[C@H]23)OCO4)cc(OC)c1O` (stereo not given in full): the TGI in the experiment with P388 leukemia came to 0.374 µM; in the experiment with SN12K1 renal it was 2.08 µM.
`O=C1Sc2sc(=S)sc2SC1c1ccccc1` (stereo not given): the TGI in the experiment with P388 leukemia was more than 67.2 µM; in the experiment on SN12K1 renal it was more than 65.2 µM.
Take `C=C1C(=O)OC2/C=C(CO)/C=C\C3OC3(C)CC(OC(=O)/C(C)=C/COC(C)=O)C12` (stereo not given): the TGI turned out to be 4.36 µM with 786-0 renal; 3.25 µM in the experiment on BT-549 breast; 11.8 µM with HS 578T breast; 4.27 µM in the experiment with LXFL 529 NSCLC; 4.13 µM in the experiment with MDA-N; 12.1 µM in the experiment with RXF-631 renal. Besides, the TGI in the experiment on SR leukemia was 13.7 µM; in the experiment on T-47D breast, 7.53 µM.
On to `Nc1nc2cc(COc3ccc(C(=O)O)cc3)ccc2nc1-c1ccccc1`, for which the TGI in the experiment with HS 578T breast, with MDA-N, in the experiment with SR leukemia and in the experiment on T-47D breast was more than 10 µM in each case.
For the compound `Cc1c2cnccc2c(C)c2c1c1ccccc1n2CCCCCCCl`, the values for the TGI in the experiment with P388 leukemia and in the experiment with SN12K1 renal were 32.6 µM and more than 50 µM, respectively.
As to `C=C1C(=O)OC2/C=C(\CO)C3OC3C3OC3(C)CC(OC(=O)/C(=C/C)COC(C)=O)C12` (stereo not given), the TGI with 786-0 renal was found to be 5.36 µM; in the experiment on BT-549 breast, 3.48 µM; in the experiment on HS 578T breast, 20.4 µM; with LXFL 529 NSCLC, 2.17 µM; in the experiment on MDA-N, 13 µM; with T-47D breast, 9.7 µM.
`O=C(N/N=C/c1cc(Cl)cc(Cl)c1[O-])c1ccccc1O.O=C(N/N=C/c1cc(Cl)cc(Cl)c1[O-])c1ccccc1O.[Mn+2]`: in the experiment on SR leukemia, the TGI turned out to be 0.832 µM.
Regarding `CS(C)(=O)=Nn1c(=O)n2n(c1=O)[C@H]1CC[C@@H]2C1`, the TGI in the experiment with HS 578T breast, with MDA-N, with SR leukemia and in the experiment on T-47D breast was more than 100 µM throughout.
On to `CSc1nc2c(ncn2C2OC(CO)C(O)C(O)C2O)c(=O)n1C` (stereo not given), for which the TGI in the experiment on P388 leukemia and with SN12K1 renal was more than 100 µM in each case.
Take `O=C(O)C(C1NCCS1)N1C(=O)c2ccccc2C1=O` (stereo not given): the TGI with 786-0 renal, with BT-549 breast, in the experiment with HS 578T breast, in the experiment with MDA-N, with SR leukemia and with T-47D breast was more than 100 µM in each case.
Turning to `COc1ccc2[nH]c(=O)cc(C)c2c1[N+](=O)[O-]`, the TGI in the experiment on 786-0 renal, in the experiment with LXFL 529 NSCLC and with RXF-631 renal was more than 100 µM each time.
